The values that follow are results of earlier work, collected in US20090105222A1, “PREVENTION AND TREATMENT OF […] DISORDERS, INCLUDING STRESS-RELATED DISORDERS” (Cypress Bioscience, Inc., priority 2002, published 2009).

The IC50 is the concentration that gives 50% inhibition.

The data set has as its target NMDA receptor. As to conditions: reported in literature (Shuto et al.); read-out: IC50 value, NMDA receptor antagonistic properties.

On to `CCN(CC)C(=O)C1(c2ccccc2)CC1CN` (stereo not shown) [milnacipran], for which the IC50 was about 6.3 µM.
